Data reported in article PMC8286840, “Identifying SARS-CoV-2 antiviral compounds by screening for small molecule inhibitors of Nsp3 papain-like protease” (Biochemical Journal, 2021).
Counter-ions that a name gives are not always drawn. Like-named read-outs stand apart in the source and are kept apart here.

Experiments:
[1] = target: T1, SARS-CoV-2 PLpro (nsp3 1564–1878) (Severe acute respiratory syndrome coronavirus 2, UniProt P0DTD1); test: biochemical; design: FRET-quenched peptide (Pro3) cleavage by PLpro, 10 min pre-incubation, slope over 20 min, normalised to no-compound control; details: low concentration screen, read-out: % of control remaining
[2] = target: T1, SARS-CoV-2 PLpro (nsp3 1564–1878); test: biochemical; design: FRET-quenched peptide (Pro3) cleavage by PLpro, 10 min pre-incubation, slope over 20 min, normalised to no-compound control; details: high concentration screen, read-out: % of control remaining

CN(NC(=O)CC(=O)NN(C)C(=S)c1ccccc1)C(=S)c1ccccc1 [Elesclomol]
remaining activity at 1.25 µM ([1]; Well no.=5001): 104%
remaining activity at 1.25 µM ([1]; Well no.=6406): 102%
remaining activity at 3.75 µM ([2]; Well no.=5001): 107%
remaining activity at 3.75 µM ([2]; Well no.=6406): 111%

CCCCCCCC(=O)N[C@H](CN1CCCC1)[C@H](O)c1ccc2c(c1)OCCO2 [Eliglustat]
remaining activity at 1.25 µM ([1]; Well no.=8530): 100%
remaining activity at 3.75 µM ([2]; Well no.=8530): 99%

O=c1oc2c(O)c(O)cc3c(=O)oc4c(O)c(O)cc1c4c23 [Ellagic acid]
remaining activity at 1.25 µM ([1]; Well no.=3346): 99.4%
remaining activity at 3.75 µM ([2]; Well no.=3346): 101%

Cc1c2ccncc2c(C)c2c1[nH]c1ccccc12 [Ellipticine]
remaining activity at 1.25 µM ([1]; Well no.=651): 95.5%
remaining activity at 1.25 µM ([1]; Well no.=3271): 102%
remaining activity at 3.75 µM ([2]; Well no.=651): 91.7%
remaining activity at 3.75 µM ([2]; Well no.=3271): 98%

COc1cc2c(cc1Cc1cccc(Cl)c1F)c(=O)c(C(=O)O)cn2[C@H](CO)C(C)C [Elvitegravir (GS-9137)]
remaining activity at 1.25 µM ([1]; Well no.=5008): 99.3%
remaining activity at 3.75 µM ([2]; Well no.=5008): 101%

CCCCCCCCCCCC1=C(O)C(=O)C=C(O)C1=O [Embelin]
remaining activity at 1.25 µM ([1]; Well no.=3273): 105%
remaining activity at 1.25 µM ([1]; Well no.=6494): 95.2%
remaining activity at 3.75 µM ([2]; Well no.=3273): 107%
remaining activity at 3.75 µM ([2]; Well no.=6494): 88.6%

CC[C@H]1CN2CCc3cc(OC)c(OC)cc3[C@@H]2C[C@@H]1C[C@H]1NCCc2cc(OC)c(OC)cc21 [Emetine dihydrochloride hydrate]
remaining activity at 1.25 µM ([1]; Well no.=646): 104%
remaining activity at 3.75 µM ([2]; Well no.=646): 103%

CC(C)C[C@H]1C(=O)O[C@H](Cc2ccc(N3CCOCC3)cc2)C(=O)N(C)[C@@H](CC(C)C)C(=O)O[C@H](C)C(=O)N(C)[C@@H](CC(C)C)C(=O)O[C@H](Cc2ccc(N3CCOCC3)cc2)C(=O)N(C)[C@@H](CC(C)C)C(=O)O[C@H](C)C(=O)N1C [Emodepside]
remaining activity at 1.25 µM ([1]; Well no.=8506): 100%
remaining activity at 3.75 µM ([2]; Well no.=8506): 100%

Cc1cc(O)c2c(c1)C(=O)c1cc(O)cc(O)c1C2=O [Emodin]
remaining activity at 1.25 µM ([1]; Well no.=749): 98.9%
remaining activity at 1.25 µM ([1]; Well no.=3282): 92%
remaining activity at 3.75 µM ([2]; Well no.=749): 96.3%
remaining activity at 3.75 µM ([2]; Well no.=3282): 93.4%

OC[C@H]1O[C@@H](c2ccc(Cl)c(Cc3ccc(O[C@H]4CCOC4)cc3)c2)[C@H](O)[C@@H](O)[C@@H]1O [Empagliflozin (BI 10773)]
remaining activity at 1.25 µM ([1]; Well no.=8724): 98.6%
remaining activity at 3.75 µM ([2]; Well no.=8724): 91.3%

C[C@H](NC(=O)C(=O)Nc1ccccc1C(C)(C)C)C(=O)N[C@@H](CC(=O)O)C(=O)COc1c(F)c(F)cc(F)c1F [Emricasan]
remaining activity at 1.25 µM ([1]; Well no.=7118): 95.7%
remaining activity at 3.75 µM ([2]; Well no.=7118): 95.9%

Nc1nc(=O)n([C@@H]2CS[C@H](CO)O2)cc1F [Emtricitabine]
remaining activity at 1.25 µM ([1]; Well no.=1733): 100%
remaining activity at 3.75 µM ([2]; Well no.=1733): 100%

CCOC(=O)[C@H](CCc1ccccc1)N[C@@H](C)C(=O)N1CCC[C@H]1C(=O)O [Enalapril (maleate)]
remaining activity at 1.25 µM ([1]; Well no.=7638): 93.9%
remaining activity at 3.75 µM ([2]; Well no.=7638): 94.6%

CCOC(=O)[C@H](CCc1ccccc1)N[C@@H](C)C(=O)N1CCC[C@H]1C(=O)O [Enalapril]
remaining activity at 1.25 µM ([1]; Well no.=2024): 93.5%
remaining activity at 3.75 µM ([2]; Well no.=2024): 102%

C[C@H](N[C@@H](CCc1ccccc1)C(=O)O)C(=O)N1CCC[C@H]1C(=O)O [Enalaprilat (dihydrate)]
remaining activity at 1.25 µM ([1]; Well no.=7842): 94.7%
remaining activity at 3.75 µM ([2]; Well no.=7842): 97.1%

C[C@H](N[C@@H](CCc1ccccc1)C(=O)O)C(=O)N1CCC[C@H]1C(=O)O [Enalaprilat Dihydrate]
remaining activity at 1.25 µM ([1]; Well no.=8094): 96.7%
remaining activity at 3.75 µM ([2]; Well no.=8094): 98.4%

C[C@H](N[C@@H](CCc1ccccc1)C(=O)O)C(=O)N1CCC[C@H]1C(=O)O [Enalaprilat]
remaining activity at 1.25 µM ([1]; Well no.=1900): 95.1%
remaining activity at 1.25 µM ([1]; Well no.=5968): 99.8%
remaining activity at 3.75 µM ([2]; Well no.=1900): 93.8%
remaining activity at 3.75 µM ([2]; Well no.=5968): 98.2%

CCCCCCCCCCCCCCCCOCC(COP(=O)([O-])OCC[N+](C)(C)C)OC(C)=O (stereo not drawn) [Enantio-PAF C16]
remaining activity at 1.25 µM ([1]; Well no.=4455): 98.4%
remaining activity at 3.75 µM ([2]; Well no.=4455): 100%

CC(C)(O)CNc1nc(Nc2ccnc(C(F)(F)F)c2)nc(-c2cccc(C(F)(F)F)n2)n1 [Enasidenib (AG-221)]
remaining activity at 1.25 µM ([1]; Well no.=8582): 101%
remaining activity at 3.75 µM ([2]; Well no.=8582): 101%

NC(=O)[C@H](Cc1ccccc1)NC(=O)[C@H](Cc1c[nH]c2ccccc12)NC(=O)[C@@H]1CCCN1C(=O)[C@@H](N)Cc1ccc(O)cc1 [Endomorphin 1]
remaining activity at 1.25 µM ([1]; Well no.=7901): 102%
remaining activity at 3.75 µM ([2]; Well no.=7901): 97.8%

O=C(O)[C@@H]1[C@H](C(=O)O)[C@H]2CC[C@@H]1O2 [Endothall]
remaining activity at 1.25 µM ([1]; Well no.=701): 97.9%
remaining activity at 3.75 µM ([2]; Well no.=701): 97.8%

CCn1cc(C(=O)O)c(=O)c2cc(F)c(N3CCNCC3)nc21 [Enoxacin]
remaining activity at 1.25 µM ([1]; Well no.=2026): 103%
remaining activity at 3.75 µM ([2]; Well no.=2026): 106%

CSc1ccc(C(=O)c2[nH]c(=O)[nH]c2C)cc1 [Enoximone]
remaining activity at 1.25 µM ([1]; Well no.=406): 103%
remaining activity at 3.75 µM ([2]; Well no.=406): 102%

CCN1CCN(c2cc3c(cc2F)c(=O)c(C(=O)O)cn3C2CC2)CC1 [Enrofloxacin]
remaining activity at 1.25 µM ([1]; Well no.=2028): 104%
remaining activity at 3.75 µM ([2]; Well no.=2028): 104%

CCN(CC)C(=O)/C(C#N)=C/c1cc(O)c(O)c([N+](=O)[O-])c1 [Entacapone]
remaining activity at 1.25 µM ([1]; Well no.=1888): 96.2%
remaining activity at 3.75 µM ([2]; Well no.=1888): 93%

C=C1[C@H](CO)[C@@H](O)C[C@@H]1n1cnc2c(=O)[nH]c(N)nc21 [Entecavir hydrate]
remaining activity at 1.25 µM ([1]; Well no.=5147): 93.9%
remaining activity at 3.75 µM ([2]; Well no.=5147): 95.5%

Cn1cc(C2=C(c3cn(C4CCN(Cc5ccccn5)CC4)c4ccccc34)C(=O)NC2=O)c2ccccc21 [Enzastaurin (LY317615)]
remaining activity at 1.25 µM ([1]; Well no.=5003): 93%
remaining activity at 3.75 µM ([2]; Well no.=5003): 87.9%

NS(=O)(=O)NCCNc1nonc1/C(=N/O)Nc1ccc(F)c(Br)c1 [Epacadostat (INCB024360)]
remaining activity at 1.25 µM ([1]; Well no.=8722): 99.6%
remaining activity at 3.75 µM ([2]; Well no.=8722): 95.9%

NS(=O)(=O)NCCNc1nonc1/C(=N/O)Nc1ccc(F)c(Br)c1 [Epacadostat]
remaining activity at 1.25 µM ([1]; Well no.=8415): 99.9%
remaining activity at 3.75 µM ([2]; Well no.=8415): 95.7%

CC(/C=C1\SC(=S)N(CC(=O)O)C1=O)=C\c1ccccc1 [Epalrestat]
remaining activity at 1.25 µM ([1]; Well no.=5046): 100%
remaining activity at 3.75 µM ([2]; Well no.=5046): 104%

C[C@]12CC[C@H](O)C[C@@H]1CC[C@@H]1[C@@H]2CC[C@]2(C)C(=O)CC[C@@H]12 [Epiandrosterone]
remaining activity at 1.25 µM ([1]; Well no.=6441): 103%
remaining activity at 3.75 µM ([2]; Well no.=6441): 103%

COc1cc2c(cc1OC)-c1cc3ccc4c(c3c[n+]1CC2)OCO4 [Epiberberine (chloride)]
remaining activity at 1.25 µM ([1]; Well no.=8339): 91.9%
remaining activity at 3.75 µM ([2]; Well no.=8339): 91.9%
